The supplement of paper PMC11451515

Tested on: P12-Ichikawa
Assay: cell viability relative to DMSO control; higher = less cytotoxic
Settings: 48 h
Procedure, shortened: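 Viability was expressed as a per-plate percentage of DMSO wells, with cell-free wells as background. Leukemia cells (NOMO1 or SEM at 500 cells/well, P12-Ichikawa at 1000 cells/well) were adapted for at least four passages in each medium and seeded in 1536-well plates (5 μl). Library compounds in DMSO were pin-dosed over an 11-point threefold series from 47 μM to 0.79 nM, and CellTiter-Glo One luminescence was read after 48 h at 37°C.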

[1] = HPLM + 10% dialyzed FBS, 0.000781 µM
[2] = HPLM + 10% dialyzed FBS, 0.00234 µM
[3] = HPLM + 10% dialyzed FBS, 0.00702 µM
[4] = HPLM + 10% dialyzed FBS, 0.0211 µM
[5] = HPLM + 10% dialyzed FBS, 0.0632 µM
[6] = HPLM + 10% dialyzed FBS, 0.19 µM
[7] = HPLM + 10% dialyzed FBS, 0.569 µM
[8] = HPLM + 10% dialyzed FBS, 1.71 µM
[9] = HPLM + 10% dialyzed FBS, 5.12 µM
[10] = HPLM + 10% dialyzed FBS, 15.4 µM
[11] = HPLM + 10% dialyzed FBS, 46.1 µM
[12] = RPMI 5 mM glucose + 10% FBS, 0.000781 µM
[13] = RPMI 5 mM glucose + 10% FBS, 0.00234 µM
[14] = RPMI 5 mM glucose + 10% FBS, 0.00702 µM
[15] = RPMI 5 mM glucose + 10% FBS, 0.0211 µM
[16] = RPMI 5 mM glucose + 10% FBS, 0.0632 µM
[17] = RPMI 5 mM glucose + 10% FBS, 0.19 µM
[18] = RPMI 5 mM glucose + 10% FBS, 0.569 µM
[19] = RPMI 5 mM glucose + 10% FBS, 1.71 µM
[20] = RPMI 5 mM glucose + 10% FBS, 5.12 µM
[21] = RPMI 5 mM glucose + 10% FBS, 15.4 µM
[22] = RPMI 5 mM glucose + 10% FBS, 46.1 µM
[23] = RPMI 5 mM glucose + 10% dialyzed FBS, 0.000781 µM
[24] = RPMI 5 mM glucose + 10% dialyzed FBS, 0.00234 µM
[25] = RPMI 5 mM glucose + 10% dialyzed FBS, 0.00702 µM
[26] = RPMI 5 mM glucose + 10% dialyzed FBS, 0.0211 µM
[27] = RPMI 5 mM glucose + 10% dialyzed FBS, 0.0632 µM
[28] = RPMI 5 mM glucose + 10% dialyzed FBS, 0.19 µM
[29] = RPMI 5 mM glucose + 10% dialyzed FBS, 0.569 µM
[30] = RPMI 5 mM glucose + 10% dialyzed FBS, 1.71 µM
[31] = RPMI 5 mM glucose + 10% dialyzed FBS, 5.12 µM
[32] = RPMI 5 mM glucose + 10% dialyzed FBS, 15.4 µM
[33] = RPMI 5 mM glucose + 10% dialyzed FBS, 46.1 µM

Row | SMILES | cell viability [1] | cell viability [2] | cell viability [3] | cell viability [4] | cell viability [5] | cell viability [6] | cell viability [7] | cell viability [8] | cell viability [9] | cell viability [10] | cell viability [11] | cell viability [12] | cell viability [13] | cell viability [14] | cell viability [15] | cell viability [16] | cell viability [17] | cell viability [18] | cell viability [19] | cell viability [20] | cell viability [21] | cell viability [22] | cell viability [23] | cell viability [24] | cell viability [25] | cell viability [26] | cell viability [27] | cell viability [28] | cell viability [29] | cell viability [30] | cell viability [31] | cell viability [32] | cell viability [33]
1 | CC[C@H](/C=C/[C@@H](C)[C@H]1CC[C@H]2[C@@H]3CC=C4C[C@@H](O)CC[C@]4(C)[C@H]3CC[C@]12C)C(C)C | 100% | 109% | 94.3% | 99.3% | 104% | 101% | 99.5% | 93.2% | 87.7% | 85.9% | 87.5% | 92.9% | 94.3% | 97.1% | 95.9% | 105% | 96.3% | 94.9% | 91.3% | 89.6% | 83.9% | 93.7% | 92.7% | 95.2% | 93% | 87.3% | 91.8% | 94.6% | 88.4% | 87.8% | 87% | 85.2% | 86.6%
2 | O=C(C=CC#Cc1cccc(N[S+](=O)([O-])c2ccccc2)c1)NO | 110% | 113% | 118% | 116% | 119% | 114% | 103% | 92.7% | 3.67% | 3.02% | 3% | 113% | 119% | 116% | 123% | 117% | 116% | 122% | 75.6% | 6.32% | 3.14% | 2.9% | 113% | 114% | 117% | 121% | 117% | 117% | 113% | 80.4% | 3.83% | 2.6% | 2.95%
3 | CC(C)N[C@@H]1CCn2c(=O)[nH]c3cccc(c32)[C@H]1O | 111% | 112% | 118% | 120% | 117% | 115% | 109% | 112% | 97.1% | 107% | 100% | 129% | 112% | 121% | 122% | 114% | 104% | 116% | 110% | 110% | 113% | 106% | 105% | 104% | 116% | 114% | 109% | 108% | 99.6% | 105% | 104% | 97.9% | 93.8%
4 | CC(C)c1noc(N2CCC(COc3ccc(-c4ccc([S+](C)(=O)[O-])cc4)nc3)CC2)n1 | 117% | 117% | 113% | 120% | 122% | 114% | 112% | 106% | 103% | 98.7% | 103% | 118% | 120% | 119% | 112% | 119% | 109% | 110% | 118% | 111% | 113% | 101% | 117% | 105% | 120% | 108% | 114% | 110% | 106% | 110% | 100% | 112% | 97.4%
5 | FC1=C(C=C(C\C2=N\NC(=O)C3=C2C=CC=C3)C=C1)C(=O)N4CCN(CC4)C(=O)C5CC5 | 81.1% | 90.8% | 94% | 96.2% | 99% | 87.4% | 95.6% | 85.7% | 85.5% | 88.3% | 49.4% | 81.6% | 84.1% | 86.7% | 88.2% | 88.7% | 86.5% | 86.1% | 82.5% | 83.8% | 72.1% | 38.9% | 78.9% | 87.3% | 86.5% | 87.1% | 91.2% | 93.2% | 82% | 82.1% | 78.9% | 73% | 53.9%
6 | CCOC(=O)[C@@H](N)Cc1ccc(-c2cc(O[C@H](c3ccc(Cl)cc3-n3ccc(C)n3)C(F)(F)F)nc(N)n2)cc1.O=C(O)CNC(=O)c1ccccc1 | 107% | 110% | 103% | 112% | 106% | 110% | 109% | 111% | 109% | 103% | 70.2% | 117% | 112% | 107% | 122% | 114% | 121% | 120% | 122% | 107% | 96.2% | 56.3% | 109% | 113% | 107% | 107% | 102% | 113% | 110% | 108% | 107% | 103% | 44.1%
7 | CC1=C(C)C(=O)C(C(CCCCCC(=O)O)c2ccccc2)=C(C)C1=O (centres undefined) | 76.1% | 91.6% | 83.8% | 76.4% | 80.6% | 84.5% | 73.8% | 83.9% | 86.2% | 84.5% | 70.6% | 86% | 91.2% | 96.2% | 94.5% | 103% | 97.5% | 82.3% | 96.1% | 72.9% | 66.7% | 56.6% | 70.5% | 77.9% | 71.7% | 84.1% | 84.4% | 85.8% | 79.2% | 80.3% | 67.4% | 72% | 52.1%
8 | CN[C@@H](C)[C@H]1[C@H](O)C[C@@]2(C)[C@@H]3CC[C@H]4C(C)(C)[C@@H](NC)CC[C@@]45C[C@@]35CC[C@]12C | 92.3% | 97.3% | 84.8% | 98.4% | 96.5% | 100% | 98.8% | 102% | 103% | 97% | 96.3% | 95.4% | 89% | 81.6% | 94.4% | 103% | 98.8% | 89.3% | 105% | 81.9% | 105% | 91.9% | 85% | 91% | 83.8% | 90.1% | 93.2% | 98.8% | 89.3% | 92.6% | 81.7% | 93.8% | 79.4%
